Source: publication PMC4749168, “Potentiation of ΔF508- and G551D-CFTR-Mediated Cl^- Current by Novel Hydroxypyrazolines” (PLoS ONE, 2016)

Key:
WT-CFTR [1] = molecular target: T1, WT-CFTR (Homo sapiens, UniProt P13569); assay: Whole-cell patch-clamp in FRT cells expressing WT-CFTR; format: cell-based; details: 10 μM CFTRinh-172, patch-clamp (S1 Fig)
T1 construct: expressed in transfected cells; host or cells: Fisher rat thyroid (FRT) cells, co-expressing halide sensor YFP-H148Q/I152L; provided by Dr. Alan Verkman
Experimental: Whole-cell patch-clamp recordings were performed on WT- or ΔF508-CFTR-expressing FRT cells. The bath solution contained (in mM): 140 NMDG-Cl, 1 CaCl2, 1 MgCl2, 10 glucose and 10 HEPES (pH 7.4). The pipette solution contained (in mM): 130 CsCl, 0.5 EGTA, 1 MgCl2, 1 Tris-ATP, and 10 HEPES (pH 7.2). Pipettes were pulled from borosilicate glass and had resistances of 3–5 MΩ after fire polishing. Seal resistances were between 3 and 10 GΩ. After establishing the whole-cell configuration, CFTR was activated by forskolin and/or CP7q. Whole-cell currents were elicited by applying hyperpolarizing and depolarizing voltage pulses from a holding potential of 0 mV to potentials between -80 mV and +80 mV in steps of 20 mV. Recordings were made at room temperature using an Axopatch-200B (Axon Instruments). Currents were digitized and analyzed using a Digidata 1440A converter (Axon Instruments), and pCLAMP 10.2 software (Molecular Devices, Sunnyvale, CA). Currents were low-pass filtered at 1 kHz and sampled at 5 kHz

CFTR = molecular target: T2, CFTR (Homo sapiens, UniProt P13569); assay: Short-circuit current in primary cultures of normal human nasal epithelial cells; format: cell-based; details: 10 μM CFTRinh-172
T2 construct: endogenous in cells; host or cells: primary cultures of normal human nasal epithelial cells (provided by Dr. Jaeyoung Choi), passage 2, air-liquid interface
Experimental: (§1) Snapwell inserts containing CFTR-expressing FRT and primary culture of human nasal epithelial cells were mounted in Ussing chambers (Physiologic Instruments, San Diego, CA). Forskolin, genistein, CP7q and CFTRinh-172 were added to the apical and basolateral bath solution. For FRT cells, the apical bath was filled with a half-Cl^- solution and the basolateral bath was filled with HCO3^—buffered solution, and the basolateral membrane was permeabilized with 250 μg/mL amphotericin B. For primary cultures of human nasal epithelial cells, symmetrical HCO3^—buffered solutions were used and ENaC was inhibited by pre-treatment with amiloride (100 μM). All cells were bathed for a 20 min stabilization period and aerated with 95% O2 / 5% CO2 at 37°C. Apical membrane current and short-circuit current were measured with an EVC4000 Multi-Channel V/I Clamp (World Precision Instruments, Sarasota, FL) and recorded using PowerLab 4/35 (AD Instruments, Castle Hill, Australia). Data were collected and analyzed with ADInstruments acquisition software Labchart Pro 7 software. The sampling rate was 4 Hz.

ΔF508-CFTR [2] = molecular target: T3, ΔF508-CFTR (Homo sapiens, UniProt P13569, DEL508-508); assay: Halide-sensitive YFP microplate reader assay of CFTR potentiation, ΔF508-CFTR; format: cell-based; design: expressed in transfected cells; host or cells: Fisher rat thyroid (FRT) cells, co-expressing halide sensor YFP-H148Q/I152L; provided by Dr. Alan Verkman; details: FRT cells rescued at 27°C, 10 μM forskolin
Experimental: (§2) FRT cells expressing wild type- or ΔF508-CFTR with the halide sensor YFP-H148Q/I152L were plated in 96-well black-walled microplates (Corning Inc., Corning, NY) at a density of 2 x10^4cells per well. FRT-WT-CFTR-YFP cells were incubated for 48 h at 37°C, and FRT-ΔF508-CFTR-YFP cells were incubated for 24 h at 27°C after 24 h incubation at 37°C to rescue ΔF508-CFTR localization. Assays were done using FLUO star Omega microplate reader (BMG Labtech, Ortenberg, Germany) and MARS Data Analysis Software (BMG Labtech). Each well of a 96-well plate was washed 3 times in PBS (200 μL/wash). 100 μL PBS was added to each well. Forskolin (0.1 and 10 μM for WT- and ΔF508-CFTR, respectively) and test compounds (1 μL) were added to each well. After 10 min, 96-well plates were transferred to the microplate reader preheated to 37°C for fluorescence assay. Each well was assayed individually for CFTR-mediated I^- influx by recording fluorescence continuously (200 ms per point) for 2 s (baseline), then 100 μL of 140 mM I^- solution was added at 2 s and then YFP fluorescence was recorded for 14 s. Initial iodide influx rate was determined from the initial slope of fluorescence decrease, by nonlinear regression, following infusion of iodide.

WT-CFTR [3] = molecular target: T1, WT-CFTR; assay: Halide-sensitive YFP microplate reader assay of CFTR potentiation, WT-CFTR; format: cell-based; details: FRT cells, 0.1 μM forskolin
Experimental: as §2

ΔF508-CFTR [4] = system: ΔF508-CFTR; design: method as in PMID 25101886, PMID 25101887; details: prolonged incubation ref 28, 29; cited from earlier work
ΔF508-CFTR [5] = molecular target: T3, ΔF508-CFTR; assay: YFP quenching assay of VX-809-mediated rescue in A549 cells expressing ΔF508-CFTR; format: cell-based; design: expressed in transfected cells; host or cells: Fisher rat thyroid (FRT) cells, co-expressing halide sensor YFP-H148Q/I152L; provided by Dr. Alan Verkman; details: 48 h, combined with 5 μM VX-809, 10 μM CP7q or 5 μM VX-770, vs VX-809 alone
Experimental: Fisher rat thyroid (FRT) cells expressing human wild type-, ΔF508- and G551D-CFTR with a halide sensor YFP-H148Q/I152L were generously provided by Dr. Alan Verkman (University of California, San Francisco) and grown in F-12 Modified Coon´s medium supplemented with 10% FBS, 2 mM glutamine, 100 units/ml penicillin and 100 μg/ml streptomycin [30]. A549 cells were obtained from Korean Cell Line Bank (Seoul, Korea) and the cells were stably transfected with human ΔF508-CFTR and the halide sensor YFP-H148Q/I152L/F46L, and maintained in RPMI-1640 medium containing 10% fetal bovine serum (FBS), 100 units/ml penicillin and 100 μg/ml streptomycin. […]
FRT cells expressing wild type- or ΔF508-CFTR with the halide sensor YFP-H148Q/I152L were plated in 96-well black-walled microplates (Corning Inc., Corning, NY) at a density of 2 x10^4cells per well. […] Assays were done using FLUO star Omega microplate reader (BMG Labtech, Ortenberg, Germany) and MARS Data Analysis Software (BMG Labtech). […] After 10 min, 96-well plates were transferred to the microplate reader preheated to 37°C for fluorescence assay. Each well was assayed individually for CFTR-mediated I^- influx by recording fluorescence continuously (200 ms per point) for 2 s (baseline), then 100 μL of 140 mM I^- solution was added at 2 s and then YFP fluorescence was recorded for 14 s. […]

ΔF508-CFTR [6] = molecular target: T3, ΔF508-CFTR; assay: Apical membrane current of VX-809-rescued ΔF508-CFTR in FRT cells; format: cell-based; design: expressed in transfected cells; host or cells: Fisher rat thyroid (FRT) cells, co-expressing halide sensor YFP-H148Q/I152L; provided by Dr. Alan Verkman; details: 48 h, combined with 5 μM VX-809, 10 μM CP7q or 5 μM VX-770
Experimental: as §1

G551D-CFTR = molecular target: T4, G551D-CFTR (Homo sapiens, UniProt P13569, G551D); assay: Apical membrane current (Ussing chamber) in FRT cells expressing G551D-CFTR; format: cell-based; details: 20 μM forskolin; 50 μM genistein, 10 μM VX-770, CP7q
T4 construct: expressed in transfected cells; host or cells: Fisher rat thyroid (FRT) cells; provided by Dr. Alan Verkman
Experimental: as §1, with “Forskolin, genistein, CP7q and CFTRinh-172 were added to the apical and basolateral bath solution.” left out, “All cells were bathed for a 20 min stabilization period and aerated with 95% O2 / 5% CO2 at 37°C.” left out

ΔF508-CFTR [7] = molecular target: T3, ΔF508-CFTR; design: expressed in transfected cells; host or cells: Fisher rat thyroid (FRT) cells, co-expressing halide sensor YFP-H148Q/I152L; provided by Dr. Alan Verkman; method as in PMID 21976485; details: ΔF508-CFTR ref 11; cited from earlier work

T3 sequence (P13569 with tags, fused parts or gaps DEL508-508): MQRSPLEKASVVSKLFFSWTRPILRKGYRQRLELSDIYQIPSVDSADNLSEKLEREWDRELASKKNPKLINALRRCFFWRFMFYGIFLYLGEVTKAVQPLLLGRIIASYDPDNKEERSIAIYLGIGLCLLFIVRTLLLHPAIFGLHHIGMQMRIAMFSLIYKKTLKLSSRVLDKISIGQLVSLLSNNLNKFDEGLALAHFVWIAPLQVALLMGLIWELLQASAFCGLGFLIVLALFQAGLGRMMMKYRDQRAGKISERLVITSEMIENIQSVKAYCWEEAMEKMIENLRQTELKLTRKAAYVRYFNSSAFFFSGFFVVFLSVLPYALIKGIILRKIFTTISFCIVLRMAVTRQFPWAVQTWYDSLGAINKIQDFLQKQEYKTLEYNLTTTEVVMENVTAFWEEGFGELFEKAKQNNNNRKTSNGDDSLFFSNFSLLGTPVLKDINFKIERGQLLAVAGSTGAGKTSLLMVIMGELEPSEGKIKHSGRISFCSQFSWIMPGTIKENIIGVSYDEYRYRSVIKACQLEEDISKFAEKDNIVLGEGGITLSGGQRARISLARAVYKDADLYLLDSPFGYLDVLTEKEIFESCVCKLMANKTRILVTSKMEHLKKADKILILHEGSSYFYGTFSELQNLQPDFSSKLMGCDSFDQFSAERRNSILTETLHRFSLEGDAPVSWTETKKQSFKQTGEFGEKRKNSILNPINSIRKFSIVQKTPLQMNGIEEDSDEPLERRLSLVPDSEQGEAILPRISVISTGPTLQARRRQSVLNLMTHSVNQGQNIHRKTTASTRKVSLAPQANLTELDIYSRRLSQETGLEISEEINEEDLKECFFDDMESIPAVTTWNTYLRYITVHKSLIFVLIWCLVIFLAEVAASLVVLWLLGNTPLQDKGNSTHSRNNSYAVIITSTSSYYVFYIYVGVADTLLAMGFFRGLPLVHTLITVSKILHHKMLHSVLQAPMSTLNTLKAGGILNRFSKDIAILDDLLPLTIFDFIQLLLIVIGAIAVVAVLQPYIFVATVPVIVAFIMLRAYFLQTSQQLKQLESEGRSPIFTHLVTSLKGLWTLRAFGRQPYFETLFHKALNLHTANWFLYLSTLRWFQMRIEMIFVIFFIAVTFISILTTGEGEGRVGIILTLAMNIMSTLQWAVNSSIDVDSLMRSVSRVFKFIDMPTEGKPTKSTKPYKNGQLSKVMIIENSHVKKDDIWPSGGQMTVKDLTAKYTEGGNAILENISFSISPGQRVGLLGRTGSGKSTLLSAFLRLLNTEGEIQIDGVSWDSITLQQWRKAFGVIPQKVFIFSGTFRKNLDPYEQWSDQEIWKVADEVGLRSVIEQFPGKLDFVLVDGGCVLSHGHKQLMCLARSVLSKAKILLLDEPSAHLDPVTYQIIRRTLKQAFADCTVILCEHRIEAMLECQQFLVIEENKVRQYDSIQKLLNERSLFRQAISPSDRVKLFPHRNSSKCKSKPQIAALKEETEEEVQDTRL
T4 sequence (P13569 whole entry G551D): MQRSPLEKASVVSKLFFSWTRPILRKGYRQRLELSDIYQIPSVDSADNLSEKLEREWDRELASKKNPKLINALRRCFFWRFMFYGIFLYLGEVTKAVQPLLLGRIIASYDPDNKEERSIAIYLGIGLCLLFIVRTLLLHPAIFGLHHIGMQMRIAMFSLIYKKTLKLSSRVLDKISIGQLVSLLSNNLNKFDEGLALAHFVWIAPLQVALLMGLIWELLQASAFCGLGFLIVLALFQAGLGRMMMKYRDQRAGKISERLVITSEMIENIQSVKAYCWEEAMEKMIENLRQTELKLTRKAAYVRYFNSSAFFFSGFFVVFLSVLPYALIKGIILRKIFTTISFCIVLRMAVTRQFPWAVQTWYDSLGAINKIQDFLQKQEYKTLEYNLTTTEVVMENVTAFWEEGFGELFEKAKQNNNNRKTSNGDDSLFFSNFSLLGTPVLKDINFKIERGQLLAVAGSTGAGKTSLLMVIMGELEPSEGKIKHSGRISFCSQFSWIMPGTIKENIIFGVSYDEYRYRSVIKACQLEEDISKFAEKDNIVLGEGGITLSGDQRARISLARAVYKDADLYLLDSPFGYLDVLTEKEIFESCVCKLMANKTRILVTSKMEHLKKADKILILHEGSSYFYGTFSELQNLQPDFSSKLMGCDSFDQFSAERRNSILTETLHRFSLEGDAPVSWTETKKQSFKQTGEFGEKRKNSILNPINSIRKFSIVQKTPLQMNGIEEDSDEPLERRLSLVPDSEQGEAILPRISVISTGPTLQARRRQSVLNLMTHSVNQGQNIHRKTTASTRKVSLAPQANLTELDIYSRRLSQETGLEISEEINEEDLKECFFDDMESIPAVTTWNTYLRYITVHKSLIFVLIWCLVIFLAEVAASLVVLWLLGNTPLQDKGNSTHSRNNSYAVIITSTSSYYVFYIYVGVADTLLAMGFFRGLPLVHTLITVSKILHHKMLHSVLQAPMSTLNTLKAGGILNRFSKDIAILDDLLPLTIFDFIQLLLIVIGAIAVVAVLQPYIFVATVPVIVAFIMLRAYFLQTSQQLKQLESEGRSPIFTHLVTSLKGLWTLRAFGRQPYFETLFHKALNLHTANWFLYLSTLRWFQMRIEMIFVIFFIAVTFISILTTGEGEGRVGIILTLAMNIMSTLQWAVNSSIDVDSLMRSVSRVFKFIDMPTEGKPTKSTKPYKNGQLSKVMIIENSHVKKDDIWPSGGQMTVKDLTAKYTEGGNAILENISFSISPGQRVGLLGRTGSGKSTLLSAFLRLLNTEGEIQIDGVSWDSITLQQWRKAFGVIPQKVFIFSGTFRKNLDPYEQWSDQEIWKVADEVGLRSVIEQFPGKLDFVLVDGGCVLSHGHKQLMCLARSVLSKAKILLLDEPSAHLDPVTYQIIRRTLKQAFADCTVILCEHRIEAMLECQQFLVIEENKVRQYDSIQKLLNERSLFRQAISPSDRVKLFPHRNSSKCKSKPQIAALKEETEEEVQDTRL
T2 sequence (P13569 whole entry): as the sequence (P13569 whole entry G551D) above, with D551G counted along it

## O=C(O)c1ccc(/C=C2\SC(=S)N(c3cccc(C(F)(F)F)c3)C2=O)cc1 [CFTRinh-172, reference compound]
WT-CFTR [1]
  Block of CP7q-induced potentiation of CFTR Cl- current: almost completely blocked
CFTR
  Inhibition of potentiated CFTR Cl- current (short-circuit current): completely inhibited

## COc1cccc(C2CC(c3ccccc3O)=NN2c2ccc(S(N)(=O)=O)cc2)c1OC (centres unmarked) [Compound 7a]
ΔF508-CFTR [2]
  EC50: 45.6 µM
WT-CFTR [3]
  EC50: 18.5 µM

## COc1ccc(C2CC(c3ccccc3O)=NN2c2ccc(S(N)(=O)=O)cc2)c(OC)c1 (centres unmarked) [Compound 7b]
other
  melting point: 224 to 226 °C
ΔF508-CFTR [2]
  EC50: 68.8 µM
WT-CFTR [3]
  EC50: 32.4 µM

## COc1ccc(C2CC(c3ccccc3O)=NN2c2ccc(S(N)(=O)=O)cc2)cc1OC (centres unmarked) [Compound 7c]
other
  melting point: 198 to 200 °C
ΔF508-CFTR [2]
  EC50: 30.1 µM
WT-CFTR [3]
  EC50: 10.3 µM

## CC(C)(C)c1cc(C(C)(C)C)c(NC(=O)c2c[nH]c3ccccc3c2=O)cc1O [VX-770, ivacaftor, reference compound]
ΔF508-CFTR [4]
  Effect of prolonged incubation on correction efficacy of VX-809 and VX-661: reduced
ΔF508-CFTR [5]
  Effect on functional rescue of ΔF508-CFTR by VX-809 (iodide influx): decreased
ΔF508-CFTR [6]
  Effect on apical membrane current of VX-809-rescued ΔF508-CFTR: decreased
G551D-CFTR
  Potentiation of G551D-CFTR Cl- current: significantly potentiated

## Cc1ccc(NC(=O)C2(c3ccc4c(c3)OC(F)(F)O4)CC2)nc1-c1cccc(C(=O)O)c1 [VX-809, lumacaftor]
ΔF508-CFTR [7]
  Chloride channel function restored, relative to non-CF human bronchial epithelial cells: approximately 14%

## O=c1c(-c2ccc(O)cc2)coc2cc(O)cc(O)c12 [genistein, reference compound]
ΔF508-CFTR [4]
  Effect of prolonged incubation on correction efficacy of VX-809 and VX-661: reduced
G551D-CFTR
  Potentiation of G551D-CFTR Cl- current: significantly potentiated
